Test results reported in ChEMBL document CHEMBL1201862, “PubChem BioAssay data set” (2004).
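Compound exposure: 48 hours, 5 concentrations, 96-well plates. The concentration for 50% growth inhibition is given as GI50.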 Active and inactive are the calls of the source. Rule as the data show it: active = GI50 up to about 1.1 µM and inactive = higher.

Key:
Test in all cases: NCI tumour cell line growth inhibition, 48 h
EKVX = test system: EKVX
MOLT-4 = test system: MOLT-4
RPMI-8226 = test system: RPMI-8226
DLD-1 = test system: DLD-1
HOP-62 = test system: HOP-62
NCI-H226 = test system: NCI-H226
COLO 205 = test system: COLO 205
HT-29 = test system: HT-29
SR = test system: SR
SK-MEL-28 = test system: SK-MEL-28
UO-31 = test system: UO-31
ACHN = test system: ACHN
KM-20L2 = test system: KM-20L2
UACC-257 = test system: UACC-257
CAKI-1 = test system: CAKI-1
NCI-H522 = test system: NCI-H522
LOX IMVI = test system: LOX IMVI
IGROV-1 = test system: IGROV-1
SN12C = test system: SN12C
SF-539 = test system: SF-539
DMS-114 = test system: DMS-114
LXFL 529 = test system: LXFL 529
HCT-116 = test system: HCT-116
Malme-3M = test system: Malme-3M
HL-60 = test system: HL-60
OVCAR-3 = test system: OVCAR-3
SNB-75 = test system: SNB-75
A549 = test system: A549
NCI-H23 = test system: NCI-H23
UACC-62 = test system: UACC-62
SF-268 = test system: SF-268
SNB-19 = test system: SNB-19
OVCAR-5 = test system: OVCAR-5
DMS-273 = test system: DMS-273
OVCAR-8 = test system: OVCAR-8
CCRF-CEM = test system: CCRF-CEM
SNB-78 = test system: SNB-78
SK-MEL-2 = test system: SK-MEL-2
HCT-15 = test system: HCT-15
SK-MEL-5 = test system: SK-MEL-5
NCI-H460 = test system: NCI-H460
SW-620 = test system: SW-620
OVCAR-4 = test system: OVCAR-4
M19-MEL = test system: M19-MEL
TK-10 = test system: TK-10
SK-OV-3 = test system: SK-OV-3
U-251 = test system: U-251
SF-295 = test system: SF-295
A498 = test system: A498
M14 = test system: M14
786-0 = test system: 786-0
KM12 = test system: KM12
HOP-92 = test system: HOP-92
BT-549 = test system: BT-549
T47D = test system: T47D
NCI/ADR-RES = test system: NCI/ADR-RES
DU-145 = test system: DU-145
Hs-578T = test system: Hs-578T
PC-3 = test system: PC-3
HCC 2998 = test system: HCC 2998
K562 = test system: K562
MDA-MB-435 = test system: MDA-MB-435
MCF7 = test system: MCF7
MDA-MB-231 = test system: MDA-MB-231
MDA-N = test system: MDA-N
RXF 393 = test system: RXF 393

## CC(C)C(Sc1nc(-c2ccccc2)c(-c2ccccc2)[nH]1)C(=O)N/N=C/c1ccc(Cl)cc1 (stereo not given)
EKVX
  GI50: 22.1 µM (inactive)
MOLT-4
  GI50: 0.0382 µM (active)
RPMI-8226
  GI50: 19.7 µM (inactive)
DLD-1
  GI50: 36.1 µM (inactive)
HOP-62
  GI50: 23.2 µM (inactive)
NCI-H226
  GI50: 17.2 µM (inactive)
COLO 205
  GI50: 17.7 µM (inactive)
HT-29
  GI50: 14.9 µM (inactive)
SR
  GI50: 32.4 µM (inactive)
SK-MEL-28
  GI50: 21.8 µM (inactive)
UO-31
  GI50: 19.5 µM (inactive)
ACHN
  GI50: 31.9 µM (inactive)
KM-20L2
  GI50: 20.6 µM (inactive)
UACC-257
  GI50: 21 µM (inactive)
CAKI-1
  GI50: 44.5 µM (inactive)
NCI-H522
  GI50: 20.7 µM (inactive)
LOX IMVI
  GI50: 15.5 µM (inactive)
IGROV-1
  GI50: 24 µM (inactive)
SN12C
  GI50: 17.5 µM (inactive)
SF-539
  GI50: 21.1 µM (inactive)
DMS-114
  GI50: 24.3 µM (inactive)
LXFL 529
  GI50: 32.1 µM (inactive)
HCT-116
  GI50: 15.8 µM (inactive)
Malme-3M
  GI50: 23.7 µM (inactive)
HL-60
  GI50: 26.3 µM (inactive)
OVCAR-3
  GI50: 18.2 µM (inactive)
SNB-75
  GI50: 29.3 µM (inactive)
A549
  GI50: 30.8 µM (inactive)
NCI-H23
  GI50: 22.3 µM (inactive)
UACC-62
  GI50: 22.8 µM (inactive)
SF-268
  GI50: 20.9 µM (inactive)
SNB-19
  GI50: 36.9 µM (inactive)
OVCAR-5
  GI50: 22.6 µM (inactive)
DMS-273
  GI50: 18.2 µM (inactive)
OVCAR-8
  GI50: 19.7 µM (inactive)
CCRF-CEM
  GI50: 21.7 µM (inactive)
SNB-78
  GI50: 28.7 µM (inactive)
SK-MEL-2
  GI50: 17.5 µM (inactive)
HCT-15
  GI50: 17.5 µM
SK-MEL-5
  GI50: 16.7 µM (inactive)
NCI-H460
  GI50: 22.7 µM (inactive)
SW-620
  GI50: 26.2 µM (inactive)
OVCAR-4
  GI50: 27.7 µM (inactive)
M19-MEL
  GI50: 19.4 µM (inactive)
TK-10
  GI50: 21.5 µM (inactive)
SK-OV-3
  GI50: 27.2 µM (inactive)
U-251
  GI50: 21.7 µM (inactive)
SF-295
  GI50: 22.8 µM (inactive)
A498
  GI50: 22 µM (inactive)
M14
  GI50: 17.7 µM (inactive)
786-0
  GI50: 21.6 µM (inactive)
KM12
  GI50: 19.8 µM (inactive)
HOP-92
  GI50: 21 µM (inactive)

## CCOC(=O)c1ccc(NC(=O)O/N=C(/Cl)C(C)C)cc1
EKVX
  GI50: 14.9 µM (inactive)
BT-549
  GI50: 14.9 µM (inactive)
MOLT-4
  GI50: 1.92 µM (inactive)
T47D
  GI50: 2.75 µM (inactive)
RPMI-8226
  GI50: 4.49 µM (inactive)
HOP-62
  GI50: 17 µM (inactive)
NCI-H226
  GI50: 24.4 µM (inactive)
COLO 205
  GI50: 2.42 µM (inactive)
HT-29
  GI50: 20.7 µM (inactive)
SR
  GI50: 2.87 µM (inactive)
NCI/ADR-RES
  GI50: 19 µM (inactive)
SK-MEL-28
  GI50: 16.2 µM (inactive)
UO-31
  GI50: 17.8 µM (inactive)
ACHN
  GI50: 14 µM (inactive)
UACC-257
  GI50: 16.9 µM (inactive)
CAKI-1
  GI50: 4.63 µM (inactive)
DU-145
  GI50: 28.1 µM (inactive)
NCI-H522
  GI50: 2.07 µM (inactive)
Hs-578T
  GI50: 29.5 µM (inactive)
PC-3
  GI50: 20.4 µM (inactive)
LOX IMVI
  GI50: 4.95 µM (inactive)
IGROV-1
  GI50: 19.4 µM (inactive)
SN12C
  GI50: 19.9 µM (inactive)
HCC 2998
  GI50: 16.6 µM (inactive)
SF-539
  GI50: 18.6 µM (inactive)
HCT-116
  GI50: 8.05 µM (inactive)
Malme-3M
  GI50: 3.76 µM (inactive)
HL-60
  GI50: 1.23 µM (inactive)
OVCAR-3
  GI50: 5.28 µM (inactive)
K562
  GI50: 1.56 µM (inactive)
MDA-MB-435
  GI50: 16 µM (inactive)
SNB-75
  GI50: 12.9 µM (inactive)
A549
  GI50: 21.7 µM (inactive)
NCI-H23
  GI50: 20 µM (inactive)
MCF7
  GI50: 1.98 µM (inactive)
UACC-62
  GI50: 18.9 µM (inactive)
SF-268
  GI50: 16.5 µM (inactive)
SNB-19
  GI50: 24 µM (inactive)
OVCAR-5
  GI50: 17.6 µM (inactive)
MDA-MB-231
  GI50: 19.5 µM (inactive)
OVCAR-8
  GI50: 13.9 µM (inactive)
CCRF-CEM
  GI50: 0.953 µM (active)
SK-MEL-2
  GI50: 15.1 µM (inactive)
HCT-15
  GI50: 8.59 µM
SK-MEL-5
  GI50: 16.1 µM (inactive)
MDA-N
  GI50: 15.8 µM (inactive)
RXF 393
  GI50: 16.3 µM (inactive)
NCI-H460
  GI50: 19.6 µM (inactive)
SW-620
  GI50: 2.09 µM (inactive)
OVCAR-4
  GI50: 14.5 µM (inactive)
TK-10
  GI50: 16.4 µM (inactive)
SK-OV-3
  GI50: 18.9 µM (inactive)
U-251
  GI50: 19.1 µM (inactive)
SF-295
  GI50: 19.1 µM (inactive)
A498
  GI50: 14.7 µM (inactive)
M14
  GI50: 1.16 µM (inactive)
786-0
  GI50: 6.67 µM (inactive)
KM12
  GI50: 18.3 µM (inactive)
HOP-92
  GI50: 1.82 µM (inactive)

## O=S(=O)(O)c1ccc(Nc2ccnc3cc(Cl)ccc23)cc1
EKVX
  GI50: > 100 µM (inactive)
BT-549
  GI50: > 100 µM (inactive)
MOLT-4
  GI50: > 100 µM (inactive)
T47D
  GI50: > 100 µM (inactive)
RPMI-8226
  GI50: > 100 µM (inactive)
HOP-62
  GI50: > 100 µM (inactive)
NCI-H226
  GI50: > 100 µM (inactive)
COLO 205
  GI50: > 100 µM (inactive)
HT-29
  GI50: > 100 µM (inactive)
SR
  GI50: > 100 µM (inactive)
NCI/ADR-RES
  GI50: > 100 µM (inactive)
SK-MEL-28
  GI50: > 100 µM (inactive)
UO-31
  GI50: > 100 µM (inactive)
ACHN
  GI50: > 100 µM (inactive)
UACC-257
  GI50: > 100 µM (inactive)
CAKI-1
  GI50: > 100 µM (inactive)
DU-145
  GI50: > 100 µM (inactive)
NCI-H522
  GI50: > 100 µM (inactive)
Hs-578T
  GI50: > 100 µM (inactive)
PC-3
  GI50: > 100 µM (inactive)
LOX IMVI
  GI50: > 100 µM (inactive)
IGROV-1
  GI50: > 100 µM (inactive)
SN12C
  GI50: > 100 µM (inactive)
HCC 2998
  GI50: > 100 µM (inactive)
SF-539
  GI50: > 100 µM (inactive)
HCT-116
  GI50: > 100 µM (inactive)
Malme-3M
  GI50: > 100 µM (inactive)
HL-60
  GI50: > 100 µM (inactive)
OVCAR-3
  GI50: > 100 µM (inactive)
K562
  GI50: > 100 µM (inactive)
MDA-MB-435
  GI50: > 100 µM (inactive)
SNB-75
  GI50: > 100 µM (inactive)
A549
  GI50: > 100 µM (inactive)
NCI-H23
  GI50: > 100 µM (inactive)
MCF7
  GI50: > 100 µM (inactive)
UACC-62
  GI50: > 100 µM (inactive)
SF-268
  GI50: > 100 µM (inactive)
SNB-19
  GI50: > 100 µM (inactive)
OVCAR-5
  GI50: > 100 µM (inactive)
MDA-MB-231
  GI50: > 100 µM (inactive)
OVCAR-8
  GI50: > 100 µM (inactive)
CCRF-CEM
  GI50: > 100 µM (inactive)
SK-MEL-2
  GI50: > 100 µM (inactive)
HCT-15
  GI50: > 100 µM
SK-MEL-5
  GI50: > 100 µM (inactive)
MDA-N
  GI50: > 100 µM (inactive)
RXF 393
  GI50: > 100 µM (inactive)
SW-620
  GI50: > 100 µM (inactive)
OVCAR-4
  GI50: > 100 µM (inactive)
TK-10
  GI50: > 100 µM (inactive)
SK-OV-3
  GI50: > 100 µM (inactive)
U-251
  GI50: > 100 µM (inactive)
SF-295
  GI50: > 100 µM (inactive)
A498
  GI50: > 100 µM (inactive)
M14
  GI50: > 100 µM (inactive)
786-0
  GI50: > 100 µM (inactive)
KM12
  GI50: > 100 µM (inactive)
HOP-92
  GI50: > 100 µM (inactive)
